One test relates to neutral sphingomyelinase. In words: Sphingomyelin and ceramide concentrations in a cell-free system (HL-60 nuclei-free supernate). The class given is biochemical, human (HL-60 cells). The method, then:
TNF-α effects on sphingomyelin (A) and ceramide (B) concentrations in a cell-free system. HL-60 cells were grown in RPMI 1640 medium supplemented with 10% bovine calf serum and amino acids. To measure sphingomyelin, cells were resuspended (1×10^6 ml^-1), labeled for 48 hours in medium with [^3 H]choline (1 μCi ml^-1), in serum-free medium containing bovine insulin (5 μg ml^-1) and human transferrin (5 μg ml^-1). After 3 hours, cells were resuspended (150×10^6 ml^-1) in homogenization buffer (50 mM NaF, 5 mM EGTA, and 25 mM Hepes, pH 7.4), disrupted at 4° C. with 150 strokes of a tight-fitting Dounce homogenizer (Fisher Scientific, Pittsburgh, Pa.), and centrifuged for 5 minutes (500 g). The nuclei-free supernate was first incubated for 5 minutes at 4° C. with 30 nM human TNF-α (Genentech, South San Francisco, Calif.) or diluent (50 mM Hepes, pH 7.4). At time zero, 15 μl of supernate (112 μg per incubation) were added to a reaction mixture containing 30 μl of 25 mM Hepes, pH 7.4, 30 μl of 750 μM ATP, and 75 μl of reaction buffer (50 mM Hepes, pH 7.4 and 20 mM MgCl2) at 22° C. The reaction was terminated with CHCl3 :CH3 OH:HCl (100:100:1, v/v/v) and 150 μl of balanced salt solution (135 mM NaCl, 4.5 mM KCl, 1.5 mM CaCl2, 0.5 mM MgCl2, 5.6 mM glucose, and 10 mM Hepes, pH 7.2) containing 20 mM EDTA. Lipids in the organic phase extract were subjected to alkaline methanolysis to remove glycerophospholipids. Sphingomyelin recovery in the nuclei-free supernate was 93% of that in intact cells. A measure of 10^6 cell equivalents of supernate contained 50 μg of protein. Sphingomyelin was resolved by thin-layer chromatography (TLC) with CHCl3 :CH3 OH:CH3 COOH:H2 O (25:15:4:1.5) as solvent, identified by iodine vapor staining and quantified by liquid scintillation spectrometry. Ceramide was quantified with the diacylglycerol kinase reaction. Values (mean) are derived from triplicate determinations from one experiment representative of three similar studies for sphingomyelin and four similar studies for ceramide.
The binding of TNF-α to its receptor is detectable within 2 minutes and maximal by 5 to 10 minutes at 4° C. in membranes derived from HL-60 cells. Therefore, supernates from HL-60 cells, collected after a low-speed centrifugation to remove nuclei, were first incubated with TNF-α for 5 minutes at 4° C. to allow the formation of TNF-receptor complexes. Thereafter, reactions were initiated by warming supernates to 22° C. in a reaction mixture containing adenosine triphosphate (ATP) and Mg^2+ at pH 7.4.
These conditions were adopted to allow for activation of neutral sphingomyelinase. Under these conditions, TNF-α induced a time- and concentration-dependent reduction in sphingomyelin content (FIG. 9A). The effect of TNF-α was evident at 1 minute and maximal by 7.5 minutes. Sphingomyelin concentrations decreased 27% from a control concentration of 10.4±0.5 (mean±SEM) to 7.6±0.2 nmol per milligram (nmol mg^-1) of supernate protein (P<0.001). […] Concentrations of TNF-α of 300 pM were effective, with a maximal effect at 3 nM TNF-α [effective dose (ED50)≈500 pM]. Under the same conditions, ceramide increased quantitatively from 1.8±0.3 to 4.0±0.5 nmol mg^-1 (FIG. 9B). This effect was detectable at 1 minute (P<0.001) and maximal by 7.5 minutes. Thus, 2.8 nmol of sphingomyelin per milligram of supernate protein were lost for each 2.2 nmol of ceramide per milligram of supernate protein that was generated. […] Other choline-containing lipids, including phosphatidyl-choline, lysophosphatidylcholine, sphingosylphosphorylcholine, and 1,2-diacylglycerol were not affected by TNF-α.

The test system of a further test is Raf-1. As to the kind of experiment: Raf-1 phosphorylation in vitro by renatured CAP kinase. Format: biochemical, human (recombinant Raf-1). To be noted: CAP kinase from TNF-stimulated HL-60 cells. From the text:
The data represent one of five similar experiments.
The data represent one of four similar experiments.
The data represent one of three similar experiments.
CAP kinase was the only kinase to renature from HL-60 cell membranes and that this activity was exclusively membrane-bound, since no 100-110 kDa activity could be renatured from cytosolic fractions. […] Conditions for CAP kinase activity were optimized previously using myelin basic protein (MBP) or a peptide derived from the amino acid sequence surrounding Thr669 of the epidermal growth factor receptor as substrates.
FIG. 17A--HL-60 cells were incubated in serum-free RPMI [RPMI containing 16 mg/ml serine, 8.4 mg/ml asparagine, 16.7 mg/ml glutamine, 25 mM HEPES, pH 7.4 and 0.5 mg/ml each of insulin and transferrin] at 1×106 ml^-1 for 2 hr, followed by stimulation with TNF (1 nM) for 20 min. […] Centrifugation for 5 min at 700×g yielded a post-nuclear supernate from which microsomal membranes were prepared by centrifugation at 250,000×g for 30 min. Microsomal membranes were resuspended into homogenizing buffer and proteins (30×10^6 cell equivalents/lane)were resolved on a 7.5% SDS-polyacrylamide gel. CAP kinase was renatured as described by Liu et al.. […]

Regarding TNF-α, in the test with neutral sphingomyelinase (TNF-α), the “effect on other choline-containing lipids and 1,2-diacylglycerol” value was “not affected”. The “decrease in sphingomyelin concentration” value with neutral sphingomyelinase (TNF-α 30 nM, cell-free) turned out to be 27%. Moreover, in the test on neutral sphingomyelinase (TNF-α, cell-free), the ceramide generated was 2.2 nmol per milligram of supernat and the sphingomyelin lost is recorded as 2.8 nmol per milligram of supernat. For the same substance, in the test with neutral sphingomyelinase (after TNF-α, control 10.4±0.5, mean±SEM, P<0.001), the sphingomyelin concentration was 7.6±0.2 nmol per milligram (nmol mg^-1) of supernate protein. Besides, in the test with neutral sphingomyelinase (after TNF-α, from 1.8±0.3), the ceramide concentration is 4.0 ± 0.5 nmol/mg. In the test on neutral sphingomyelinase (cell-free), the “ED50 (sphingomyelin reduction)” value is on record as “≈ 500 pM”, the “concentration of maximal effect (sphingomyelin reduction)” value is given as 3 nM, the “effective concentration (sphingomyelin reduction)” value is on record as 300 pM and the “onset of sphingomyelin reduction” value was found to be 1 min. For the same substance, in the test with neutral sphingomyelinase (cell-free), the “time to maximal ceramide increase” value is no more than 7.5 min and the “time to maximal sphingomyelin reduction” value was no more than 7.5 min. In addition, the “onset of ceramide increase” value in the test with neutral sphingomyelinase (cell-free, P<0.001) stood at 1 min. In the test with Raf-1, the “enhancement of Raf-1 phosphorylation” value is reported as 4-5 fold.

Values taken from US6040149A, “Assay for identifying agents which act on the ceramide-activated protein kinase, kinase suppressor of ras, and methods of using said agents” (priority 1997, dated 2000).
